A short description of this assay: Sensory evaluation of sweetness and mouthfeel of solutions in sucrose base solution (Example II). Type of assay: in vivo. Particulars: in sucrose base solution (4% in water), sucrose 1.5%, Reb-A 30 ppm, sucralose 20 ppm, rubusoside 45 ppm, Preparations at total rubusoside 45 ppm; for Mouthfeel: averaged score of 0 to 10 (0=none, 1=barely detectable, 2=weak, 4=weak-moderate, 6=moderate, 8=moderate-strong, 10=extremely strong); for Sweetness: averaged score of 0 to 10 (0=none, 10=extremely strong). Here is the method:
Isosweet solutions of sucrose (1.5%), rebaudioside A (“Reb-A”) (30 ppm), sucralose (20 ppm) and rubusoside (45 ppm) were prepared in a sucrose base solution (4% in water). Additional solutions of the transglucosylated R. suavissimus extract prepared with different rubusoside transglucosylation rates including Preparation I, II and III (prepared as above in EXAMPLE I) were also prepared, wherein the total rubusoside concentrations were equalized to 45 ppm.
Sweetness and mouthfeel of the obtained solutions were evaluated using a score of 0 to 10, where 0=none, 1=barely detectable, 2=weak, 4=weak-moderate, 6=moderate, 8=moderate-strong and 10=extremely strong.

`C=C1C[C@@]23CC[C@H]4[C@@](C)(CCC[C@@]4(C)C(=O)O[C@@H]4O[C@H](CO)[C@@H](O)[C@H](O)[C@H]4O)[C@@H]2CC[C@]1(O[C@@H]1O[C@H](CO)[C@@H](O)[C@H](O)[C@H]1O)C3` [Rubusoside, rubusoside] registered a Mouthfeel of 4 and a Sweetness of 5.
For `C=C1C[C@@]23CC[C@H]4[C@@](C)(CCC[C@@]4(C)C(=O)O[C@@H]4O[C@H](CO)[C@@H](O)[C@H](O)[C@H]4O)[C@@H]2CC[C@]1(O[C@@H]1O[C@H](CO)[C@@H](O)[C@H](O[C@@H]2O[C@H](CO)[C@@H](O)[C@H](O)[C@H]2O)[C@H]1O[C@@H]1O[C@H](CO)[C@@H](O)[C@H](O)[C@H]1O)C3` [Reb-A, rebaudioside A], in that order: 3 and 5.
`OC[C@H]1O[C@@](CO)(O[C@H]2O[C@H](CO)[C@@H](O)[C@H](O)[C@H]2O)[C@@H](O)[C@@H]1O` [Sucrose, sucrose] displayed a Mouthfeel of 7 and a Sweetness of 5.
Regarding `OC[C@H]1O[C@H](O[C@]2(CCl)O[C@H](CCl)[C@@H](O)[C@@H]2O)[C@H](O)[C@@H](O)[C@H]1Cl` [Sucralose, sucralose], the Mouthfeel was determined as 3 and the Sweetness turned out to be 5.

These data come from US20160183577A1, “Transglucosylated Rubus suavissimus Extract and Methods of Preparation and Use” (INTERNATIONAL FLAVORS & FRAGRANCES INC., priority 2014, published 2016).
